Reference: US8399487B2, “Pyrazole compounds and uses thereof” (Dart NeuroScience (Cayman) Ltd., priority 2006, dated 2013)
Entries after “also recorded” stand apart in the source; their conditions may differ.

Tested on: contextual memory in C57BL/6 male mice
Experiment: Contextual Memory Assay: Fear Conditioning
Assay type: in vivo
Conditions: I.P. 0.01 mg/kg, injected 20 minutes before training, 2 training trials, tested 24 hours after training (FIG. 1)
Excerpt: The ability of a compound to modulate cognitive behavior can be evaluated using the following assay to measure memory after contextual fear conditioning.
Contextual Memory Assay: Fear Conditioning
Contextual memory is a form of Pavlovian fear conditioning in which a naïve mouse is placed into a novel chamber (context) containing distinct visual, olfactory and tactile cues. After a couple of minutes of acclimation, the mouse receives a brief, mild electric shock to its feet. From this negative experience, the mouse will remember for months that that chamber is dangerous. When placed back into the same context at some later time after training, the mouse's natural response to danger is to “freeze,” sitting stone still for many seconds. This is similar to what happens to humans when they experience fear. The percent of time during an observation period that the mouse spends frozen represents a quantitative measure (memory score) of its memory of the context. […]
To assess contextual memory, a modified contextual fear conditioning task originally developed for evaluation of memory in CREB knock-out mice was used (Bourtchouladze, R., et. al., Cell, 1994, 79, 59-68). […] 24 hours after training, the mouse was placed into the same training chamber and contextual memory was assessed by scoring freezing behavior (‘freezing’ serves as memory score). […]

Row | Structure (SMILES) | contextual memory (freezing to context 24 hr after training)
1 | Cn1nc(-c2ccc(C(=O)N3CCCCC3)s2)cc1C(F)(F)F [Compound 177, [5-(1-Methyl-5-trifluoromethyl-1H-pyrazol-3-yl)-thiophen-2-yl]-piperidin-1-yl-methanone] | significantly enhanced contextual memory; also recorded: significantly facilitated freezing to context
2 | CN(C)C(=O)c1ccc(-c2cc(C(F)(F)F)n(C)n2)s1 [Compound 162, 5-(1-Methyl-5-trifluoromethyl-1H-pyrazol-3-yl)-thiophene-2-carboxylic acid dimethylamide] | significantly enhanced contextual memory; also recorded: significantly facilitated freezing to context
